This passage reports Vmax results from US9512459B2 (priority 2011, dated 2016).

For assay [1], the target named is Sclerotinia sclerotiorum glucose dehydrogenase (FAD-GDH) Ssc-n3 variant N191K/S529G, SEQ ID NO: 1 (Sclerotinia sclerotiorum, UniProt A7F9L2, N191K/S529G). The note with it: 60 ml culture, crude enzyme; glucose 1-40 mM, pH 6.5, DCIP/PMS. Here is the method: (§1) The transformant BL21 (DE3) expressing each mutated enzyme was precultured. The transformant was inoculated in an amount of 1% with respect to 60 ml of a medium A using a 300-ml baffled flask and shake-cultured under conditions involving 20° C., 28 hours, and 125 rpm. After collection of 50 ml of the medium, the bacterial cells were suspended by the addition of BugBuster (registered trademark) protein extraction reagent (Novagen/Merck KGaA) at a ratio of 5 ml per g of wet cells and incubated at room temperature for 15 minutes with gentle shaking. Insoluble fractions were removed by centrifugation (15 Krpm, 4° C., 20 minutes). Then, the obtained supernatant was dialyzed overnight at 4° C. against a 20 mM potassium phosphate buffer solution (pH 6.5). After the completion of the dialysis, the dialysate was centrifuged, and the supernatant was used as a crude enzyme preparation. Insoluble fractions were suspended in a 20 mM potassium phosphate buffer solution (pH 6.5) at a ratio of 1 ml per 2 ml of the suspension containing the insoluble fractions.
(§2) The GDH activity was measured in a DCIP (0.3 mM)/PMS (0.6 mM) system using a 20 mM potassium phosphate buffer solution (pH 6.5) as a buffer solution and glucose (Glc; 1, 2, 4, 10, 20, and 40 mM) and xylose (Xyl; 4 and 40 mM) as substrates.
(§3) The numeric values in the tables represent a mean of several data about specific activity (U/mg) and productivity (U/L) obtained under the same conditions with 40 mM glucose as a substrate. The obtained crude enzyme preparation was used to observe the correlation between the concentration of the substrate (glucose; 1, 2, 4, 10, 20, and 40 mM) and the activity. The obtained Michaelis-Menten constant (Km value) and apparent maximum activity (Vmax) were determined from a saturation curve determined therefrom.

Assay [2] addresses Sclerotinia sclerotiorum glucose dehydrogenase (FAD-GDH) Ssc-n2 variant N191R/S529G, SEQ ID NO: 1 (Sclerotinia sclerotiorum, UniProt A7F9L2, N191R/S529G). The note with it: 60 ml culture, crude enzyme; glucose 1-40 mM, pH 6.5, DCIP/PMS. As to the method:
as §1, §2, §3

Assay [3] deals with Sclerotinia sclerotiorum glucose dehydrogenase (FAD-GDH) Ssc-n2 variant N191E/S529G, SEQ ID NO: 1 (Sclerotinia sclerotiorum, UniProt A7F9L2, N191E/S529G). The note with it: 60 ml culture, crude enzyme; glucose 1-40 mM, pH 6.5, DCIP/PMS. Here is the method: as §1, §2, §3
The target in assay [4] is Sclerotinia sclerotiorum glucose dehydrogenase (FAD-GDH) Ssc-n2 variant N191S/S529G, SEQ ID NO: 1 (Sclerotinia sclerotiorum, UniProt A7F9L2, N191S/S529G). The note with it: 60 ml culture, crude enzyme; glucose 1-40 mM, pH 6.5, DCIP/PMS. Here is the method:
as §1, §2, §3

The target of assay [5] is Sclerotinia sclerotiorum glucose dehydrogenase (FAD-GDH) Ssc-n1 variant N191K/S529G, SEQ ID NO: 1 (Sclerotinia sclerotiorum, UniProt A7F9L2, N191K/S529G). Conditions: 60 ml culture, crude enzyme; glucose 1-40 mM, pH 6.5, DCIP/PMS. As to the method: as §1, §2, §3
Assay [6] has as its target Sclerotinia sclerotiorum glucose dehydrogenase (FAD-GDH) Ssc-n1 variant N191K, SEQ ID NO: 1 (Sclerotinia sclerotiorum, UniProt A7F9L2, N191K). The note with it: 60 ml culture, crude enzyme; glucose 1-40 mM, pH 6.5, DCIP/PMS. As to the method:
as §1, §2, §3

Assay [7] concerns the target Sclerotinia sclerotiorum glucose dehydrogenase (FAD-GDH) Ssc-n1 variant N191E, SEQ ID NO: 1 (Sclerotinia sclerotiorum, UniProt A7F9L2, N191E). Conditions: 60 ml culture, crude enzyme; glucose 1-40 mM, pH 6.5, DCIP/PMS. As to the method: as §1, §2, §3
Assay [8] deals with Sclerotinia sclerotiorum glucose dehydrogenase (FAD-GDH) Ssc-n1 variant S529G, SEQ ID NO: 1 (Sclerotinia sclerotiorum, UniProt A7F9L2, S529G). Conditions: 60 ml culture, crude enzyme; glucose 1-40 mM, pH 6.5, DCIP/PMS. Here is the method: as §1, §2, §3
Assay [9] deals with T1, Aspergillus niger glucose dehydrogenase (FAD-GDH) Ang-n2, SEQ ID NO: 2 (26 N-terminal residues deleted, Met-Thr-Asp-Ser-Thr-Leu-Asn added) (Aspergillus niger, UniProt A2QWL1).
T1 construct: pET30c, E. coli BL21(DE3), crude extract or purified (T9)
T1 sequence (A2QWL1 27-588): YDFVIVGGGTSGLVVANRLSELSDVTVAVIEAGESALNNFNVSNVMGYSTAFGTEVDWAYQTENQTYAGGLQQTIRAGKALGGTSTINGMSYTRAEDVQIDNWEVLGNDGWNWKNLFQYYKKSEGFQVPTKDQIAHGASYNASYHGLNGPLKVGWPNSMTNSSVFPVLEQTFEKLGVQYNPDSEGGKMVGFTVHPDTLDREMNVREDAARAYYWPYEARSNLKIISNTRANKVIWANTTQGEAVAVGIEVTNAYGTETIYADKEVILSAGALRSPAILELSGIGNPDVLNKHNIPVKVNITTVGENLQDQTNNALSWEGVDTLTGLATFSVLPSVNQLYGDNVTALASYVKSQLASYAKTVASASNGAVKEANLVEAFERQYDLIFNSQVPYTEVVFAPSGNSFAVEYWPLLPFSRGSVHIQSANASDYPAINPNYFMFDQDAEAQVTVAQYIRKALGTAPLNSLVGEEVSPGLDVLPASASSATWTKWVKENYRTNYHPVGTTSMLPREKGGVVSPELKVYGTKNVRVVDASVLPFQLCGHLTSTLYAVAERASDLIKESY
Kind of assay: GDH activity vs glucose, saturation curve (Ang-n2). The class given is biochemical. Conditions: crude enzyme, glucose 1-40 mM, pH 6.5, DCIP/PMS. Here is the method:
as §1, with “After the completion of the dialysis, the dialysate was centrifuged, and the supernatant was used as a crude enzyme preparation. Insoluble fractions were suspended in a 20 mM potassium phosphate buffer solution (pH 6.5) at a ratio of 1 ml per 2 ml of the suspension containing the insoluble fractions.” left out
as §2
The numeric values in the tables represent a mean of several data about specific activity (U/mg) and productivity (U/L) obtained under the same conditions with 40 mM glucose as a substrate. […] The obtained Michaelis-Menten constant (Km value) and apparent maximum activity (Vmax) were determined from a saturation curve determined therefrom.

The structures appear in SMILES notation.

Consider `OC[C@H]1OC(O)[C@H](O)[C@@H](O)[C@@H]1O` (stereo partly shown) [glucose], for which the Vmax in assay [1] is 6.9 U/mg protein; in [2], 15.7 U/mg protein; in assay [3], 20.2 U/mg protein; in [4] it was 19.4 U/mg protein; in assay [5], 7.2 U/mg protein; in [6], 1.6 U/mg protein. For the same compound, the Vmax worked out at 5.6 U/mg protein in assay [7], 3.6 U/mg protein in [8], 1.5 U/mg protein in [9] (3 ml culture (Table 8)) and 1.5 U/mg protein in [9] (60 ml culture).
